Legend:
HSF1 = conditions: cited from earlier work
NF-κB [1] = conditions: chemical or physiological inducers; cited from earlier work
[2] = system: human Burkitt lymphoma HS-Sultan cells; assay: Annexin V staining apoptosis, HS-Sultan cells; type: cell-based
Protocol: (§1) Cell Culture and Treatments. Human breast cancer MDA-MB-231, human melanoma SK-MEL-28, and human Burkitt lymphoma HS-Sultan cell lines, obtained from ATCC (Manassas, Va.), were grown at 37° C. in 5% CO2 and 95% humidified air in cell culture medium containing 10% fetal calf serum, 2 mM glutamine and antibiotics ([…] penicillin and 0.1 mg/ml streptomycin) (Life Technologies, Inc.). Each compound to be assayed was dissolved in absolute ethanol and diluted in the culture medium immediately before use. Control cells received the same amount of ethanol diluent. Cells were incubated with the assay compound or control diluent for 8 hours, unless indicated otherwise. Cell viability was determined by vital-dye exclusion assay (Trypan blue, 0.1%).
(§2) Flow Cytometry. For Annexin V staining, cells were washed once with PBS and resuspended in staining buffer (10 mM HEPES pH 7.4, 140 mM NaCl, 2.5 mM CaCl) with […] of AnnexinV-PI (AnnexinV-FITC, Becton-Dickinson). After 15 minutes of incubation in the dark, cells were directly analyzed in a FACScan (Becton-Dickinson). Cells were evaluated with CellQuest Program (Becton-Dickinson). Data were plotted using a histogram algorithm, in which the intensities of Annexin V-positive cells were represented as percent of untreated control. Exemplary data obtained from human Burkitt lymphoma HS-Sultan cells and human melanoma SK-MEL-28 cells (24 hour incubation for SK-MEL-28 cells) are provided in FIGS. 1 and 2, respectively.
Electrophoretic Mobility Shift Assay (EMSA). […] Complexes were analyzed by nondenaturing 4% polyacrylamide gel electrophoresis. […] Quantitative evaluation of NF-κB-κB complex formation was determined by Typhoon-8600 Imager (Molecular Dynamics), using ImageQuant software (MDP analysis). […]

[3] = system: human melanoma SK-MEL-28 cells; assay: Annexin V staining apoptosis, SK-MEL-28 cells; type: cell-based; conditions: 24 hour incubation, in comparison to Cisplatin, Etoposide and Vinblastine, FIG. 2
Protocol: as §1
as §2, with “Exemplary data obtained from human Burkitt lymphoma HS-Sultan cells and human melanoma SK-MEL-28 cells (24 hour incubation for SK-MEL-28 cells) are provided in FIGS. 1 and 2, respectively.” left out

[4] = system: human breast cancer MDA-MB-231 cells; assay: DNA fragmentation (Cell-Death-Detection ELISA), MDA-MB-231 cells; type: cell-based; conditions: 5 μM, 48 hour incubation, FIG. 3
Protocol: as §1
DNA Fragmentation. Cytoplasmic histone-bound DNA fragments (mono- and oligo-nucleosomes) generated during apoptosis were measured by Cell-Death-Detection ELISA kit (Roche Diagnostics, Mannheim, Germany), according to the manufacturer's instructions. Histone-associated DNA fragments were quantified spectrophotometrically using antibodies against DNA and histones in a colorimetric assay. Enrichment in cytoplasmic nucleosomes was expressed as fold-induction of levels in untreated controls. […] At 5 μM CTM-208, apoptosis was increased more than 35-fold over the untreated control.

NF-κB [5] = assay: EMSA of NF-κB DNA-binding activity in HS-Sultan cells; type: cell-based; conditions: Homo sapiens, FIG. 6
Protocol: as §1
Electrophoretic Mobility Shift Assay (EMSA). For nuclear extract preparation, cells (2×10^6 cells/sample) were lysed in hypotonic lysis buffer (10 mM NaCl, 3 mM MgCl2, 10 mM Tris-HCl pH 7.8, 0.5% NP40, 1 mM DTT) and then in high-salt extraction buffer (50 mM Tris-HCl, 400 mM NaCl, 1 mM EDTA, 1 mM EGTA, 1% Triton, 0.5% NP-40, 10% glycerol, 1 mM DTT, 1 mM PMSF, 0.5 μg/ml leupeptin, 0.7 μg/ml pepstatin, 0.2% aprotinin). […] Complexes were analyzed by nondenaturing 4% polyacrylamide gel electrophoresis. […] Quantitative evaluation of NF-κB-κB complex formation was determined by Typhoon-8600 Imager (Molecular Dynamics), using ImageQuant software (MDP analysis). […]

[6] = system: Human keratinocytes (HaCaT); assay: HaCaT cell proliferation assay (viable cell count); type: cell-based; conditions: 48 hours after treatment
Protocol: (§3) Cell Lines and Treatments. Human keratinocytes (HaCaT) were grown routinely in DMEM supplemented with 10% FBS and 2 mM L-glutamine at 37° C. in a 5% CO2 humidified atmosphere. Human umbilical vein endothelial cells (HUVEC), obtained from Clonetics (San Diego, Calif., USA), were cultured in EGM medium (Clonetics, San Diego, Calif., USA) supplemented with 2% FBS, […], […] hydrocortisone, […] gentamicin, 3 mg/ml BBE (bovine brain extract) at 37° C. in a 5% CO2 humidified atmosphere.
Compounds. CTM-208 was dissolved in absolute ethanol or DMSO (0.1 M stock solution), stored at −20° C., and diluted in the culture medium immediately before use. Control cells received the same amount of DMSO diluent that had no effect on cell proliferation at the concentrations tested. Methotrexate was dissolved in DMSO. […]
Cell Proliferation Assay. […] At 48 hours after the addition of the compounds, cell proliferation was determined by counting the number of viable cells in a hemocytometer. Cell viability was determined by the Trypan blue vital dye exclusion technique. IC50 values on the increase in the number of cells over the number of seeded cells were calculated at 48 hours after treatment.
Effect of CTM-208 on human keratinocyte proliferation. […] At 48 hours after the addition of the compounds, cell proliferation was determined by counting the number of viable cells in a hemocytometer. […]

[7] = system: Human endothelial cells (HUVEC); assay: HUVEC DNA synthesis (BrdU incorporation); type: cell-based; conditions: 48 hours, read-out: IC50 endothelial cell proliferation (BrdU DNA synthesis)
Protocol: as §3
Compounds. CTM-208 was dissolved in absolute ethanol or DMSO (0.1 M stock solution), stored at −20° C., and diluted in the culture medium immediately before use. […]
DNA synthesis. […] DNA synthesis was evaluated by incorporation of 5-bromo-2-deoxy-uridine (BrdU) into cellular DNA 48 hours after the addition of the compounds. The amount of BrdU integrated into DNA was evaluated by using a monoclonal antibody against BrdU (cell proliferation ELISA colorimetric assay, Roche). Absorbance (l: 405 nm) was measured using a Victor microtiter plate reader (Wallac), and data were analyzed using the Allfit program.
Effect of CTM-208 on human endothelial cell proliferation. […] At 48 hours after the addition of the compounds, DNA synthesis was evaluated by incorporation of 5-bromo-2-deoxy-uridine (BrdU) into cellular DNA. […]

HSF [8] = assay: EMSA of HSF induction in human keratinocytes; type: cell-based
NF-κB [9] = assay: EMSA of NF-κB DNA-binding activity in human keratinocytes; type: cell-based; conditions: Keratinocyte, read-out: NF-κB
Protocol: Electrophoretic Mobility Shift Assay (EMSA). For nuclear extract preparation, cells (2×10^6 cells/sample) were lysed in hypotonic lysis buffer (10 mM NaCl, 3 mM MgCl2, 10 mM Tris-HCl pH 7.8, 0.5% NP40, 1 mM DTT) and then in high-salt extraction buffer (50 mM Tris-HCl, 400 mM NaCl, 1 mM EDTA, 1 mM EGTA, 1% Triton, 0.5% NP-40, 10% glycerol, 1 mM DTT, 1 mM PMSF, 0.5 μg/ml leupeptin, 0.7 μg/ml pepstatin, 0.2% aprotinin). Equal amounts of protein (6 μg/sample) were incubated with ^32P-labeled κB-DNA probe followed by analysis of DNA-binding activity by EMSA. Binding reactions were performed as described (11). Complexes were analyzed by nondenaturing 4% polyacrylamide gel electrophoresis. Specificity of protein-DNA complexes was verified by immunoreactivity with polyclonal antibodies specific for the NF-κB subunit, p65/RelA. Quantitative evaluation of NF-κB-κB complex formation was determined by Typhoon-8600 Imager (Molecular Dynamics), using ImageQuant software (MDP analysis).

human keratinocytes = assay: LD50 in human keratinocytes; type: cell-based
Protocol: Cell Proliferation Assay. HaCaT cells (2.5×10^4 cells/well) were seeded in 24-well plates. After 24 hours, the medium was removed and the test compounds were added at different concentrations. At 48 hours after the addition of the compounds, cell proliferation was determined by counting the number of viable cells in a hemocytometer. Cell viability was determined by the Trypan blue vital dye exclusion technique. IC50 values on the increase in the number of cells over the number of seeded cells were calculated at 48 hours after treatment.

HSF [10] = assay: EMSA of HSF induction in human endothelial cells; type: cell-based
NF-κB [11] = assay: EMSA of NF-κB DNA-binding activity in human endothelial cells; type: cell-based; conditions: Endothelial cell
Protocol: as §3
Electrophoretic Mobility Shift Assay (EMSA). For nuclear extract preparation, cells (2×10^6 cells/sample) were lysed in hypotonic lysis buffer (10 mM NaCl, 3 mM MgCl2, 10 mM Tris-HCl pH 7.8, 0.5% NP40, 1 mM DTT) and then in high-salt extraction buffer (50 mM Tris-HCl, 400 mM NaCl, 1 mM EDTA, 1 mM EGTA, 1% Triton, 0.5% NP-40, 10% glycerol, 1 mM DTT, 1 mM PMSF, 0.5 μg/ml leupeptin, 0.7 μg/ml pepstatin, 0.2% aprotinin). Equal amounts of protein (6 μg/sample) were incubated with ^32P-labeled κB-DNA probe followed by analysis of DNA-binding activity by EMSA. Binding reactions were performed as described (11). Complexes were analyzed by nondenaturing 4% polyacrylamide gel electrophoresis. […] Quantitative evaluation of NF-κB-κB complex formation was determined by Typhoon-8600 Imager (Molecular Dynamics), using ImageQuant software (MDP analysis). […]

human endothelial cells = assay: LD50 in human endothelial cells; type: cell-based

Structure (SMILES) | concentration able to activate HSF1 and trigger synthesis of HSP70 (HSF1) [µM] | concentration able to block NF-κB activation (NF-κB [1]) [µM] | apoptosis ([2]; 0.5 μM, 8 hour treatment) | concentration at which induction of apoptosis starts to be effective ([2]; Annexin V-PI staining, FIG. 7) [µM] | induction of apoptosis (Annexin V-positive cells) ([2]; in comparison to 15d-PGJ2, FIG. 1) | induction of apoptosis (Annexin V-positive cells) [3] | apoptosis increase over untreated control (cytoplasmic nucleosome enrichment) [4] | IC50 (NF-κB [5]) [nM] | IC50 [6] [nM] | IC50 [7] [nM] | concentration for HSF induction (HSF [8]) [µM] | IC50 (NF-κB [9]) [nM] | LD50 (human keratinocytes) [µM] | effective concentration for HSF induction (HSF [10]) [µM] | IC50 (NF-κB [11]) [nM] | LD50 (human endothelial cells) [µM]
O=C1C=CCC1 [cyclopent-2-en-1-one] | 125 to 500 | 125 to 500 |  |  |  |  |  |  |  |  |  |  |  |  |  | 
COC(=O)[C@H](CSC1CC(=O)/C(=C/c2ccccc2)CC1O[Si](C)(C)C(C)(C)C)NC(=O)OC(C)(C)C (stereo partly drawn) [CTM-208, (R)-2-tert-Butoxycarbonylamino-3-[4E-benzylidene-2(tert-butyl-dimethylsilanyloxy)-5-oxo-cyclohexylsulfanyl]-propionic acid methyl ester] |  |  | approximately 90% | 0.1 | potent inducer of apoptosis | potent inducer of apoptosis | more than 35 fold | 200 | 2000 | 1600 | 1.5 | 19000 | 400 | <1 | 5000 | >400
CN(Cc1cnc2nc(N)nc(N)c2n1)c1ccc(C(=O)N[C@@H](CCC(=O)O)C(=O)O)cc1 [Methotrexate, reference compound] |  |  |  |  |  |  |  |  | < 100 |  | >400 |  | >400 |  |  | 

Source: US8367735B2, “Pharmaceutical compositions” (Crawford Healthcare Holdings Limited, priority 2006, dated 2013)
